Measured values from publication PMC3192012 (Biochemistry, 2011).

How the values were obtained:
[1] = target: T1, His6P4H1 (Dictyostelium discoideum, UniProt Q86KR9); experiment: […]CO2-release assay with Skp1A; type: biochemical; details: 0.05 mM [1-14C]αKG, 5 µM Skp1A, 5 µM Fe(II), 1 mM ascorbate, pH 7.4, 29 °C, αKG antagonist
[2] = target: T1, His6P4H1; experiment: […]CO2-release assay with Skp1A; type: biochemical; details: read-out: % inhibition at 1 mM

T1 sequence (Q86KR9 whole entry): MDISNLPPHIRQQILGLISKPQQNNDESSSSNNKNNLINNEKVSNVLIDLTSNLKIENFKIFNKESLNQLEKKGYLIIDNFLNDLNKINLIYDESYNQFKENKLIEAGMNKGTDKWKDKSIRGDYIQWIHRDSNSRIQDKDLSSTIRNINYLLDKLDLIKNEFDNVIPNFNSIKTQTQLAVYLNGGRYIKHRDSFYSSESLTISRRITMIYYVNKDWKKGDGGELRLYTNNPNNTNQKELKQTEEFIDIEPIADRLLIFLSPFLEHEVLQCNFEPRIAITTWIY

SMILES	inhibition at 1000 µM [2]	other results
O=C(O)c1ccc(O)c(O)c1 [PCA]		% inhibition [1]: the αKG antagonists DMOG and PCA, and CoCl2 (Fig. 1D)
O=C(O)/C=C/C(=O)O [fumarate]	50 to 70%	
COC(=O)CNC(=O)C(=O)OC [DMOG]		% inhibition ([1]; EtOH carrier): the αKG antagonists DMOG and PCA, and CoCl2 (Fig. 1D)

Continued, in another order:

inhibition at 1000 µM [2]	SMILES	other results
50 to 70%	O=C(O)CCC(=O)O [succinate]	
50 to 70%	O=C(O)CC(=O)C(=O)O [oxaloacetate]	
